Measurements as given in patent US8962322B2, “Enhancers of induced pluripotent stem cell reprogramming” (City of Hope, priority 2012, dated 2015).

Experiments:
OCT4 promoter = assay: Bisulfite genomic sequencing of OCT4 promoter in IMR90 fibroblasts; format: cell-based, human; conditions: IMR90 fibroblasts treated for two days
Experimental: To uncover the mechanism of OAC 1-mediated improvement of reprogramming efficiency, it was tested whether OAC 1 functions through regulation of DNA methylation status on the endogenous Oct4 promoter. Human IMR90 fibroblast cells were treated with OAC1 or vehicle control for two days.
Bisulfite Genomic Sequencing: Genomic DNA was isolated from human IMR90 fibroblasts, MEFs, mouse ESCs, 4F+OAC1 and 4F+OAC2-iPSCs by digestion with proteinase K, followed by phenolchloroform extraction and ethanol precipitation. Bisulfite conversion of genomic DNAs was carried out using the EZ DNA Methylation-Gold kit (Zymo Research) according to manufacturer's instruction. The bisulfite-modified DNA was then used as a template for PCR to amplify the promoter regions of Oct4 and Nanog using PCR primers for human OCT4 (1), mouse Oct4 (52) and Nanog (2). The amplified products were cloned into the pCR2.1-TOPO cloning vector (Invitrogen), and 10 randomly selected clones were sequenced with T7 or M13R primers.

p21 = assay: RT-PCR of p21 expression in treated MEFs; format: cell-based, mouse; conditions: MEFs treated for two days
Experimental: Inhibition of the p53-p21 signaling increased reprogramming efficiency (26, 28-31, 41). To investigate whether compound OAC1 enhanced reprogramming efficiency by affecting this pathway, MEFs were treated with vehicle control or OAC1 and determined the expression level of p53 and p21 in the treated cells.
RT-PCR analysis: Total RNA was purified with Trizol reagent (Invitrogen). Reverse transcription was performed with 1 μg of RNA using Omniscript® Reverse Transcription Kit (Qiagen). Quantitative PCR was performed using iTaq SYBR Green Supermix with Rox (Bio-rad) in Applied Biosystem Step one plus real-time PCR system. […]

human Nanog promoter = assay: Nanog-luc luciferase reporter assay (stably transfected CV1 cells); format: cell-based
luciferase [1] = molecular target: T1, luciferase (Photinus pyralis, UniProt P08659); assay: inhibition of luciferase activity at 1 μM (applicant's observation)
Excerpt: OAC1 and related analogs belong to a structural class of 5-substituted pyrrolo[2,3-b]pyridine- and indole-based benzamides. Very little is reported about their biological activities. […] However, in a different assay called ATLAS (any target ligand affinity screen), no inhibition was detected (49).

luciferase [2] = molecular target: T1, luciferase; conditions: cited from earlier work
luciferase [3] = molecular target: T1, luciferase; conditions: read-out: EC50 of luciferase inhibition; at 40° C., loss of enzymatic activity as measurement; cited from earlier work

T1 sequence (P08659 whole entry): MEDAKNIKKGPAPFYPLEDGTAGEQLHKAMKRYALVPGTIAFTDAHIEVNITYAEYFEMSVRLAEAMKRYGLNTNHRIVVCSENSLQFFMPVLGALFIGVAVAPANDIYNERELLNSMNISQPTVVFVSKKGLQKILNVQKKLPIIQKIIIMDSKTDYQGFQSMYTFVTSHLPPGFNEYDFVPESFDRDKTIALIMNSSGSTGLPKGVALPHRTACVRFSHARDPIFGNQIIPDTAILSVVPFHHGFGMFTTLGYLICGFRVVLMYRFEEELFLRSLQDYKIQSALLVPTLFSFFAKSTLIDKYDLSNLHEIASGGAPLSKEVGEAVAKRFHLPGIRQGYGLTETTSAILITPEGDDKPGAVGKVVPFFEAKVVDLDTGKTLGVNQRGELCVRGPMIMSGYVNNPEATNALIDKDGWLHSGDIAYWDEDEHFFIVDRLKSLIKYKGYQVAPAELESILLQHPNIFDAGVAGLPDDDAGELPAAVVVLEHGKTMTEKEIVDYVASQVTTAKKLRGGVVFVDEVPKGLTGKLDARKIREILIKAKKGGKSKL

O=C(Nc1cc2cc[nH]c2cn1)c1ccccc1 [OAC1, N-(1H-6-azaindol-5-yl)benzamide]
OCT4 promoter methylation status versus DMSO (OCT4 promoter): no significant difference | p21 expression level versus DMSO (p21): no significant difference | activation of Nanog-luc at 50 nM (human Nanog promoter; 50 nM): substantial activation | fold induction at 1 µM (human Nanog promoter; Chlorocebus aethiops, CV-1, compound at 1 μM, Nanog-luc cells, triplicates): 4.5 | induction of Nanog-luc, comparison with known reprogramming enhancers (in words) (human Nanog promoter; OAC1 1 μM, BIO 2 μM, BIX 2 μM, AzaC 2 μM, Vc 25 μg/ml, Am580 10 nM, tranylcypromine 5 μM, VPA 0.5 mM, two days): potent induction | activation of human Nanog reporter (in words) (human Nanog promoter; triplicate luciferase reporter assays): considerable activation | inhibition of luciferase activity (luciferase [1]): no inhibition | inhibition in ATLAS assay (luciferase [2]): no inhibition | EC50 (luciferase [3]): 6.37 µM
